This passage reports DC50 results from patent US20240287076A1, “COMPOUNDS FOR TARGETING DEGRADATION OF BRUTON'S TYROSINE KINASE” (BIOGEN MA INC., priority 2021, published 2024).

Each structure is given as a SMILES string. Bounds are passed on as bounds.

The target of this assay is T1, BTK (Homo sapiens, UniProt Q06187).
T1 construct: The GM01501.3 cell line endogenously expresses BTK with a HiBiT fusion tag via CRISPR knock-in at its C-terminal region; endogenous in cells; host or cells: GM01501.3 (GM01501 cells engineered by CRISPR knock-in of HiBiT at the BTK locus)
T1 sequence (Q06187 whole entry, the tested form may be a part): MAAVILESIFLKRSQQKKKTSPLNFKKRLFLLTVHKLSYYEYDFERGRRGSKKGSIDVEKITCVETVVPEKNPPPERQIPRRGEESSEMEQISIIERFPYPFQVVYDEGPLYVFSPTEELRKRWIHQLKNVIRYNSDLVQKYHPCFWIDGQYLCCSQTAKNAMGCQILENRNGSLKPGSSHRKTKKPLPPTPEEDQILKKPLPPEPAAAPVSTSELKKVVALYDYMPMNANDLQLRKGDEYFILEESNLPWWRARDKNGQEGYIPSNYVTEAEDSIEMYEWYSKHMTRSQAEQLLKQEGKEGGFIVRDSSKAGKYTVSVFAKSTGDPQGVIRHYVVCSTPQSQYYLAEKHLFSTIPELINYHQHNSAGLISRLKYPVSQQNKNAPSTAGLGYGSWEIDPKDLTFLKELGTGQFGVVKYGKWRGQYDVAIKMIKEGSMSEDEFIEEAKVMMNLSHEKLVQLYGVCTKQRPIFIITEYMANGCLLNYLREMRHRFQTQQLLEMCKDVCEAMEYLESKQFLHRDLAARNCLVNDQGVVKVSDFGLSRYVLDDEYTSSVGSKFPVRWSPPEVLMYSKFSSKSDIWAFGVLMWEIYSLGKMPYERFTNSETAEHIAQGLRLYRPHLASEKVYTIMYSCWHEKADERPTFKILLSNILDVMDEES
In words: BTK degradation assay using the HiBiT Method (Nano-Glo HiBiT Lytic Assay, GM01501.3 cells). The class given is cell-based. The note with it: HiBiT Degradation on GM01501.3 BTK @ 6 hours. A digest of the protocol: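 CRISPR knock-in GM01501.3 cells expressing endogenous BTK with C-terminal HiBiT tag, treated 6 h at 37 °C with compounds, 11-point half-log titration from 10 μM top, duplicates. Remaining BTK quantified by Nano-Glo HiBiT lytic luminescence versus DMSO controls; DC50 reported.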
On the technique in general: With HiBiT, luminescence reflects the tagged protein that the partner subunit can reach.
One may read the DC50 as the concentration giving 50% degradation. A higher DC50 goes with degradation only at high concentration. Molecule `Cn1nc(N2CCC(=O)NC2=O)c2ccc(C3CCN(Cc4ccc(-c5cc6nccc(-c7ccc(CNC(=O)c8noc(C(C)(C)C)n8)c(F)c7)n6n5)cc4F)CC3)cc21` [Example 166, 5-tert-butyl-N-[[4-[2-[4-[[4-[3-(2,4-dioxohexahydropyrimidin-1-yl)-1-methyl-indazol-6-yl]-1-piperidyl]methyl]-3-fluoro-phenyl]pyrazolo[1,5-a]pyrimidin-7-yl]-2-fluoro-phenyl]methyl]-1,2,4-oxadiazole-3-carboxamide] registered a DC50 of under 100 nM.
To `COc1ccc(C(=O)NCc2ccc(-c3ncnn4cc(-c5ccc(CN6CCC(c7ccc(NC8CCC(=O)NC8=O)cc7)CC6)cc5)cc34)cc2C)cc1` (stereo not drawn) [Example 66, N-[[4-[6-[4-[[4-[4-[(2,6-dioxo-3-piperidyl)amino]phenyl]-1-piperidyl]methyl]phenyl]pyrrolo[2,1-f][1,2,4]triazin-4-yl]-2-methyl-phenyl]methyl]-4-methoxy-benzamide] belongs under 100 nM; to `Cc1cc(-c2ncnn3cc(CCN4CCC(c5ccc(NC6CCC(=O)NC6=O)cc5)C(F)(F)C4)cc23)ccc1CNC(=O)c1noc(C(C)(C)C)n1` (stereo not drawn) [Example 275, 5-(tert-butyl)-N-(4-(6-(2-(4-(4-((2,6-dioxopiperidin-3-yl)amino)phenyl)-3,3-difluoropiperidin-1-yl)ethyl)pyrrolo[2,1-f][1,2,4]triazin-4-yl)-2-methylbenzyl)-1,2,4-oxadiazole-3-carboxamide], under 100 nM.
Regarding `Cc1cc(-c2ncnn3cc(CCN4CCN(c5ccc(NC6CCC(=O)NC6=O)cn5)CC4)cc23)ccc1CNC(=O)c1noc(C(C)(C)C)n1` (stereo not drawn) [Example 260, 5-(tert-butyl)-N-(4-(6-(2-(4-(5-((2,6-dioxopiperidin-3-yl)amino)pyridin-2-yl)piperazin-1-yl)ethyl)pyrrolo[2,1-f][1,2,4]triazin-4-yl)-2-methylbenzyl)-1,2,4-oxadiazole-3-carboxamide], the DC50 is under 100 nM.
To `Cc1ccc(C(=O)NCc2ccc(-c3ncnn4cc(-c5ccc(CN6CCC(c7ccc(NC8CCC(=O)NC8=O)cc7)CC6)cc5)cc34)cc2C)cc1` (stereo not drawn) [Example 68, N-[[4-[6-[4-[[4-[4-[(2,6-dioxo-3-piperidyl)amino]phenyl]-1-piperidyl]methyl]phenyl]pyrrolo[2,1-f][1,2,4]triazin-4-yl]-2-methyl-phenyl]methyl]-4-methyl-benzamide] belongs under 100 nM; to `Cc1cc(-c2ncnn3cc(-c4ccc(CN5CCC(c6ccc(NC7CCC(=O)NC7=O)cc6)CC5)cc4)cc23)ccc1CNC(=O)C12CC(C(C)(C)C)(C1)C2` (stereo not drawn) [Example 75, 3-tert-butyl-N-[[4-[6-[4-[[4-[4-[(2,6-dioxo-3-piperidyl)amino]phenyl]-1-piperidyl]methyl]phenyl]pyrrolo[2,1-f][1,2,4]triazin-4-yl]-2-methyl-phenyl]methyl]bicyclo[1.1.1]pentane-1-carboxamide], under 100 nM; to `Cc1cc(-c2ncnn3cc(C#CCCN4CCC(c5ccc(C6CCC(=O)NC6=O)cc5)CC4)cc23)ccc1CNC(=O)c1noc(C(C)(C)C)n1` (stereo not drawn) [Example 291, 5-(tert-butyl)-N-(4-(6-(4-(4-(4-(2,6-dioxopiperidin-3-yl)phenyl)piperidin-1-yl)but-1-yn-1-yl)pyrrolo[2,1-f] [1,2,4]triazin-4-yl)-2-methylbenzyl)-1,2,4-oxadiazole-3-carboxamide], 100 to 500 nM.
To `Cc1cc(-c2ncnn3cc(-c4cccc(CN5CCC(c6ccc(C7CCC(=O)NC7=O)cc6)CC5)n4)cc23)ccc1CNC(=O)c1noc(C(C)(C)C)n1` (stereo not drawn) [Example 214, 5-(tert-butyl)-N-(4-(6-(6-((4-(4-(2,6-dioxopiperidin-3-yl)phenyl)piperidin-1-yl)methyl)pyridin-2-yl)pyrrolo [2,1-f][1,2,4]triazin-4-yl)-2-methylbenzyl)-1,2,4-oxadiazole-3-carboxamide] belongs under 100 nM; to `Cc1cc(-c2ncnn3cc(CN(C)CCN4CCC(c5ccc(C6CCC(=O)NC6=O)cc5)CC4)cc23)ccc1CNC(=O)c1noc(C(C)(C)C)n1` (stereo not drawn) [Example 125, 5-tert-butyl-N-[[4-[6-[[2-[4-[4-(2,6-dioxo-3-piperidyl)phenyl]-1-piperidyl]ethyl-methyl-amino]methyl]pyrrolo[2,1-f][1,2,4]triazin-4-yl]-2-methyl-phenyl]methyl]-1,2,4-oxadiazole-3-carboxamide], under 100 nM; to `Cc1cc(-c2ncnn3cc(-c4cccc(CCN5CCC(c6ccc(NC7CCC(=O)NC7=O)cc6)CC5)c4)cc23)ccc1CNC(=O)c1noc(C(C)(C)C)n1` (stereo not drawn) [Example 54, 5-tert-butyl-N-[[4-[6-[3-[2-[4-[4-[(2,6-dioxo-3-piperidyl)amino]phenyl]-1-piperidyl]ethyl]phenyl]pyrrolo[2,1-f][1,2,4]triazin-4-yl]-2-methyl-phenyl]methyl]-1,2,4-oxadiazole-3-carboxamide], under 100 nM.
Next, `Cc1cc(-c2ncnn3cc(OC[C@@H](F)CN4CCN(c5ccc(NC6CCC(=O)NC6=O)cn5)CC4)cc23)ccc1CNC(=O)c1noc(C(C)(C)C)n1` (stereo partly drawn) [Example 296, 5-(tert-butyl)-N-(4-(6-((2S)-3-(4-(5-((2,6-dioxopiperidin-3-yl)amino)pyridin-2-yl)piperazin-1-yl)-2-fluoropropoxy)pyrrolo[2,1-f][1,2,4]triazin-4-yl)-2-methylbenzyl)-1,2,4-oxadiazole-3-carboxamide]: under 100 nM; `Cc1cc(-c2ncnn3cc(-c4cccc(CN5CCC(c6ccc(NC7CCC(=O)NC7=O)cc6)CC5)c4)cc23)ccc1CNC(=O)c1noc(C(C)(C)C)n1` (stereo not drawn) [Example 50, 5-tert-butyl-N-[[4-[6-[3-[[4-[4-[(2,6-dioxo-3-piperidyl)amino]phenyl]-1-piperidyl]methyl]phenyl]pyrrolo[2,1-f][1,2,4]triazin-4-yl]-2-methyl-phenyl]methyl]-1,2,4-oxadiazole-3-carboxamide]: under 100 nM.
`Cc1cc(-c2ncnn3cc(-c4ccc(CN5CCC(c6ccc(NC7CCC(=O)NC7=O)cc6)CC5)cc4)cc23)ccc1CNC(=O)c1cc2ccccc2s1` (stereo not drawn) [Example 77, N-[[4-[6-[4-[[4-[4-[(2,6-dioxo-3-piperidyl)amino]phenyl]-1-piperidyl]methyl]phenyl]pyrrolo[2,1-f][1,2,4]triazin-4-yl]-2-methyl-phenyl]methyl]benzothiophene-2-carboxamide]: the DC50 is under 100 nM.
To `Cc1cc(-c2ncnn3cc(-c4ccc(CCN5CCC(c6ccc(C7CCC(=O)NC7=O)cc6)CC5)cc4)cc23)ccc1CNC(=O)c1noc(C(C)(C)C)n1` (stereo not drawn) [Example 52, 5-tert-butyl-N-[[4-[6-[4-[2-[4-[4-(2,6-dioxo-3-piperidyl)phenyl]-1-piperidyl]ethyl]phenyl]pyrrolo[2,1-f][1,2,4]triazin-4-yl]-2-methyl-phenyl]methyl]-1,2,4-oxadiazole-3-carboxamide] belongs under 100 nM; to `Cc1cc(-c2ncnn3cc(-c4cccc(C(C)CN5CCC(c6ccc(C7CCC(=O)NC7=O)cc6)CC5)c4)cc23)ccc1CNC(=O)c1noc(C(C)(C)C)n1` (stereo not drawn) [Example 207, 5-(tert-butyl)-N-(4-(6-(3-(1-(4-(4-(2,6-dioxopiperidin-3-yl)phenyl)piperidin-1-yl)propan-2-yl)phenyl)pyrrolo[2,1-f][1,2,4]triazin-4-yl)-2-methylbenzyl)-1,2,4-oxadiazole-3-carboxamide], under 100 nM.
